Tests used:
[1] = tested on: iCell mesenchymal stem cells; assay: bone nodule measurement in mesenchymal stem cells induced from human iPS cells; assay type: cell-based; details: 10 μg/mL for each; 15 days; bone differentiation medium
Procedure: iCell (registered trademark) mesenchymal stem cells (iCell (registered trademark) MSCs) (#01279, manufactured by Fujifilm Corporation) (1×10^4 cells/mL) obtained by inducing human mesenchymal stem cells from iPS cells, were cultured in α-MEM and a bone differentiation medium (containing 50 μg/mL ascorbic acid and 10 mM β-glycerol 2-phosphate). Ethanol (final concentration 0.1% by mass), or erythromycin, clarithromycin, or azithromycin (10 μg/mL for each) was added to the medium. The medium was exchanged every 3 days, and after 15 days, the cells were stained with Alizarin red S, followed by performing of bone nodule measurement. The results are shown in FIG. 18 (stained images) and FIG. 19 (graph showing the proportion of bone nodules). In FIG. 18 and FIG. 19, the ethanol (final concentration 0.1% by mass)-added group is a control. In FIG. 19, the symbol * indicates p≤0.05, the symbol ** indicates p≤0.01, the symbol *** indicates p≤0.001, and the symbol **** indicates p≤0.0001.

[2] = tested on: RUNX2 mRNA, Sp7 mRNA, and Bglap mRNA; assay: RT-PCR of bone regeneration genes in osteoblasts; assay type: cell-based, mouse; details: osteoblasts derived from wild-type mice
Procedure: Next, the proportion (%) of bone nodules with respect to the observation region in the above-described osteoblasts was calculated from microscopic images by using image processing software (NIH Image). In addition, RNA was extracted from each of the osteoblasts by using an RNeasy Kit (manufactured by QIAGEN NV), subsequently cDNA was synthesized by using a cDNA synthesis kit (manufactured by Thermo Fisher Scientific, Inc.), and the relative expression levels of RUNX2 mRNA, Sp7 mRNA, and Bglap mRNA, which are important for bone regeneration, were checked by an RT-PCR method (Quantstudio3, Thermo Fisher Scientific, Inc.). Regarding primers, designed primers manufactured by Thermo Fisher Scientific, Inc. were used. The Assay IDs of the primers used are shown below.

[3] = tested on: α-SMA-positive mesenchymal stem cells; assay: immunofluorescence staining of periodontal tissue of experimental periodontitis mice; assay type: in vivo, mouse; details: wild-type mice; jawbone slices
Procedure: Next, jawbones of the wild-type mice to which erythromycin had or had not been administered were extracted and fixed, and then slice preparations were produced. Next, immunofluorescence staining was performed by using an anti-α-SMA antibody (manufactured by Abcam, Ltd.) fluorescently labeled with Alexa Fluor (registered trademark) 488 (manufactured by Thermo Fisher Scientific, Inc.), an anti-CD31/PECAM-1 antibody (manufactured by Thermo Fisher Scientific, Inc.) fluorescently labeled with Alexa Fluor (registered trademark) 647 (manufactured by Thermo Fisher Scientific, Inc.), and an anti-Ki67 antibody (manufactured by R&D Systems, Inc.) fluorescently labeled with Alexa Fluor (registered trademark) 594 (manufactured by Thermo Fisher Scientific, Inc.). Observation images (magnification: 200 times) obtained with a fluorescence microscope (ECLIPSE Ni-E, manufactured by Nikon Corporation) are shown in FIG. 5.

acute lung disorder mice = assay: LPS-induced acute lung disorder, HE staining of lung tissue; assay type: in vivo, mouse; details: 10 mg/kg intraperitoneally once a day for two weeks
Procedure: Acute lung disorder was induced by administering lipopolysaccharide (LPS) to the tracheae and bronchi of mice (the details of a production method were as described in Non Patent Document 1). Erythromycin (10 mg/kg) was administered to 6-week-old wild-type mice (N=4, male C57BL/6N mice, manufactured by CLEA Japan, Inc.) and 6-week-old DEL-1-deficient mice (N=4, male C57BL/6N mice (manufactured by CLEA Japan, Inc.), a method for producing the deficient mice was as described in Non-Patent Document 1), by intraperitoneal administration once a day for a total of two weeks. After the administration, the lungs were extracted from each mouse and fixed, and then slice preparations were produced. Next, hematoxylin and eosin (HE) staining was performed. Observation images (magnifications: 10 times and 200 times) obtained with a microscope (manufactured by Nikon Corporation, ECLIPSE Ni-E) are shown in FIG. 7A to 7C.

DEL-1 = details: versus resolvin D1 or DHEA; Non-Patent Document 1; cited from earlier work
[4] = tested on: bone defects in the jawbones; assay: jawbone defect regeneration in cynomolgus monkeys (microCT); assay type: in vivo; details: 200 μg at bone defect site, one month
Procedure: Bone defects with a diameter of 2 cm and a depth of 2 cm were artificially produced in the jawbones of young (2 years old) and aged (10 years old) cynomolgus monkeys by using a round steel bar. Next, 200 μg of each of erythromycin, clarithromycin, and azithromycin were added to the bone defect sites. As controls, a non-administered group and a group administered with 200 μg of REGROTH (registered trademark), which has been approved as a bone regenerative agent, were also prepared. The amount of bone regeneration after one month from the administration of each drug was checked by using microCT. In FIG. 10, the symbol * indicates p<0.01.

CC[C@H]1OC(=O)[C@H](C)[C@@H](O[C@H]2C[C@@](C)(OC)[C@@H](O)[C@H](C)O2)[C@H](C)[C@@H](O[C@@H]2O[C@H](C)C[C@H](N(C)C)[C@H]2O)[C@](C)(O)C[C@@H](C)C(=O)[C@H](C)[C@@H](O)[C@]1(C)O [erythromycin]
formation of bone nodules (FIG. 18, FIG. 19) [1]: the formation of bone nodules was recognized
expression of Bglap mRNA [2]: increases in the expression
expression of RUNX2 mRNA [2]: increases in the expression
expression of Sp7 mRNA [2]: increases in the expression
proportion of α-SMA-positive mesenchymal stem cells (FIG. 5) [3]: the proportion of α-SMA-positive mesenchymal stem cells was increased
tissue repair and restructuring of the alveolar structure (FIG. 7C) (acute lung disorder mice; DEL-1-deficient mouse): normal tissue repair and restructuring of the alveolar structure were not recognized
tissue repair and restructuring of the alveolar structure (FIG. 7B) (acute lung disorder mice; wild-type mouse): normal tissue repair and restructuring of the alveolar structure were recognized
DEL-1 induction potency relative to resolvin D1 or DHEA (DEL-1): about three
bone regeneration effect (FIG. 10) ([4]; aged (10 years old) cynomolgus monkeys): a bone regeneration effect was recognized
bone regeneration effect (FIG. 10) ([4]; young (2 years old) cynomolgus monkeys): a bone regeneration effect was recognized
